Legend:
[1] = system: differentiated 3T3-L1 mouse adipocyte cells; experiment: Adipocyte glucose consumption in differentiated 3T3-L1 cells (colorimetric glucose assay of the medium); format: cell-based; settings: 3T3-L1, 24 h, compound 10 μM, loss of glucose from culture medium, mean fold change (compound/DMSO)
Procedure: Activity of compounds on adipocyte glucose consumption was tested in differentiated 3T3-L1 mouse adipocyte cells. 3T3-L1 preadipocytes (ATCC) were routinely cultured in a growth medium composed of DMEM high-glucose (Sigma), 10% FBS (Gibco), 10 U/ml penicillin and 10 μg/ml streptomycin (P/S; Gibco). To induce adipogenic differentiation, a confluent layer of 3T3-L1 cells were incubated with the growth medium containing 2 μM rosiglitazone, 1 μM dexamethasone, 500 μM IBMX, and 1 μg/ml insulin (Sigma). Forty-eight (48) hours later (on day 2) and on days 4 and 6, medium of the cells was replaced with fresh medium containing 1 μg/ml insulin. On days 8 and 10, the medium was refreshed with regular growth medium and addition of insulin was omitted. On day 11, medium of the cells were 10 replaced with fresh medium containing either the indicated compounds (10 μM) or the vehicle in which the compounds were dissolved (DMSO). The final concentration of DMSO was 0.1% (v/v). Growth medium containing 0.1% DMSO was incubated in culture wells containing no cells and used as control. 24 hours later, medium was harvested and subjected to centrifugation at 10,000 g for 5 min. Glucose concentration in the supernatants was determined using a 15 colorimetric assay (Glucose Assay Kit I, Eton Biosciences). Glucose consumption in compound and vehicle treated cells was measured as loss of glucose from the culture medium and represented as mean fold change (compound/DMSO)±standard deviation (SD).

[2] = target: T1, His6 tagged human recombinant FABP4 (Homo sapiens, UniProt P15090); experiment: FABP4 TR-FRET assay: displacement of fluorescent fatty acid BODIPY FL C12; settings: inhibition of BODIPY FL C12 binding to His6-FABP4; 1.2 μL of 1.085 mM compound in DMSO per well; triplicates, mean percent inhibition
T1 construct: purchased Cayman Chemicals 10009549
T1 sequence (P15090 whole entry): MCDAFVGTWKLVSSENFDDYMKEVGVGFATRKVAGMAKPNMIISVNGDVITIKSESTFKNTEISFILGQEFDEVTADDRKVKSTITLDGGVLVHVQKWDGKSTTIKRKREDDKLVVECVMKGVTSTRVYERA
Excerpt: Activity of compounds with FABP4 was profiled using a Terbium (Tb) based time resolved fluorescence energy transfer (TR-FRET) assay. The assay measures the compound mediated displacement of the fluorescent fatty acid BODIPY FL C12 (Thermo Fisher; catalog number D3822) from His6 tagged human recombinant FABP4 (His6-FABP4; Cayman Chemicals, catalog number 10009549) via recording the energy transfer from TB donor molecule on anti-His6-tag antibody to acceptor BODIPY moiety. Briefly, compounds and BODIPY FL C12 were prepared at a concentration of 1.085 mM and 4.2 μM, respectively, in DMSO. 1.2 μL of each compound or DMSO (vehicle control) and 1.2 μL of BODIPY FL C12 were added into the wells of a 384-well black polypropylene plate. His6-FABP4 and Tb anti-His6 antibody were prepared in the assay buffer (25 mM Tris/HCl, pH 7.4, 0.4 mg/ml γ-globulins, 0.010% NP-40, 1 mM DTT) at a concentration of 83 nM and 49.6 nM, respectively. The protein and antibody solutions were then mixed at a ratio of 34:7 (v/v) and incubated on ice for 30 minutes. The assay was initiated by adding 41 μL of the resulting protein/antibody solution into the wells containing the compounds and BODIPY FL C12. The plate was centrifuged and incubated at room temperature for 10 min. The TR-FRET signals were recorded using an EnVision Multilabel plate reader (PerkinElmer; TB excitation 320 nm, BODIPY FL C12 emission 520 nm; TB emission 615 nm). Relative fluorescence ratio (520 nm*10,000/615 nm) were used to calculate the compound mediated inhibition of BODIPY C12 FL fatty acid binding to FABP4. The compounds were tested in triplicates and the results were represented as mean percent inhibition (compound*100/DMSO)±standard deviation (SD). Glucose consumption and FABP4 inhibition is shown below in Table 3 below. The compounds showing no inhibition of activity in the TR-FRET assay are marked as N.A. N.D. stands for “not determined”.

Q: For O=C(O)C1CCCN1c1cc(-c2ccccc2)c2cc(Cl)ccc2n1 (stereo not shown) [1-(6-chloro-4-phenylquinolin-2-yl)pyrrolidine-2-carboxylic acid], which fold induction at 10 µM [1] is on record?
A: 1.08

Q: What about the inhibition at 1085 µM (stock) [2] of the same compound?
A: 105%

Q: How did the fold induction at 10 µM [1] turn out when CCCCCCc1ccc2nc(-n3ccc(C(=O)O)c3)cc(-c3ccccc3)c2c1 [1-(6-hexyl-4-phenylquinolin-2-yl)-1H-pyrrole-3-carboxylic acid] was run?
A: 1.09

Q: And the inhibition at 1085 µM (stock) [2]?
A: < 0%

Q: How did the fold induction at 10 µM [1] turn out when CCCCCCc1ccc2nc(N3CCC(C)(C(=O)O)C3)cc(-c3ccccc3)c2c1 (stereo not shown) [1-(6-hexyl-4-phenylquinolin-2-yl)-3-methylpyrrolidine-3-carboxylic acid] was run?
A: 1.36

Q: What about the inhibition at 1085 µM (stock) [2] of the same compound?
A: 36.4%

Q: Which results are given for CCCCCCc1ccc2nc(N3CC(C(=O)O)CC3=O)cc(-c3ccccc3)c2c1 (stereo not shown) [1-(6-hexyl-4-phenylquinolin-2-yl)-5-oxopyrrolidine-3-carboxylic acid]?
A: fold induction at 10 µM [1]: 1.11; inhibition at 1085 µM (stock) [2]: 6.12%

Q: For CCCCCCc1ccc2nc(N3CCCC(C(=O)O)C3)cc(-c3ccccc3)c2c1 (stereo not shown) [1-(6-hexyl-4-phenylquinolin-2-yl)piperidine-3-carboxylic acid], which fold induction at 10 µM [1] is on record?
A: 1.16

Q: And the inhibition at 1085 µM (stock) [2]?
A: 88.3%

Q: Which results are given for CCCCCCc1ccc2nc(N3CCCC3C(=O)O)cc(-c3ccccc3)c2c1 (stereo not shown) [1-(6-hexyl-4-phenylquinolin-2-yl)pyrrolidine-2-carboxylic acid]?
A: fold induction at 10 µM [1]: 1.09; inhibition at 1085 µM (stock) [2]: 67.5%

Q: Which fold induction at 10 µM [1] does the source give for CCCCc1ccc2nc(N3CCCC(C(=O)O)C3)cc(-c3cccc(C#N)c3)c2c1 (stereo not shown) [1-[6-butyl-4-(3-cyanophenyl)quinolin-2-yl]piperidine-3-carboxylic acid] here?
A: 0.91

Q: And the inhibition at 1085 µM (stock) [2]?
A: 24.3%

Q: For CCCCCCc1ccc2nc(N3CCCC(C(=O)O)C3)cc(-c3cccnc3)c2c1 (stereo not shown) [1-[6-hexyl-4-(pyridin-3-yl)quinolin-2-yl]piperidine-3-carboxylic acid], which fold induction at 10 µM [1] is on record?
A: 1.09

Q: What about the inhibition at 1085 µM (stock) [2] of the same compound?
A: 91.6%

Q: With CCCc1ccc2nc(N(C)CC(=O)O)cc(-c3cccc(C#N)c3)c2c1 [2-([4-(3-cyanophenyl)-6-propylquinolin-2-yl](methyl)amino}acetic acid] as the compound, how does the fold induction at 10 µM [1] read?
A: 1.31

Q: What about the inhibition at 1085 µM (stock) [2] of the same compound?
A: 27.7%

Q: How did the fold induction at 10 µM [1] turn out when CCCc1ccc2nc(OCC(=O)O)cc(-c3cccc(C#N)c3)c2c1 [2-([4-(3-cyanophenyl)-6-propylquinolin-2-yl]oxy}acetic acid] was run?
A: 1.06

Q: And the inhibition at 1085 µM (stock) [2]?
A: 34.8%

Q: Which results are given for CCCCCCc1ccc2nc(N(C)CC(=O)O)cc(Oc3ccc(F)cc3)c2c1 [2-([4-(4-fluorophenoxy)-6-hexylquinolin-2-yl](methyl)amino}acetic acid]?
A: fold induction at 10 µM [1]: 1.27; inhibition at 1085 µM (stock) [2]: 65.2%

Q: Which fold induction at 10 µM [1] does the source give for CCCCCCCc1ccc2nc(N(C)CC(=O)O)cc(-c3ccc(F)cc3)c2c1 [2-([4-(4-fluorophenyl)-6-heptylquinolin-2-yl](methyl)amino}acetic acid] here?
A: 1.25

Q: And the inhibition at 1085 µM (stock) [2]?
A: 75.6%

Q: With CCCCCCc1ccc2nc(N(C)CC(=O)O)c(C)c(-c3ccc(F)cc3)c2c1 [2-([4-(4-fluorophenyl)-6-hexyl-3-methylquinolin-2-yl](methyl)amino}acetic acid] as the compound, how does the fold induction at 10 µM [1] read?
A: 1.19

Q: What about the inhibition at 1085 µM (stock) [2] of the same compound?
A: 111%

Q: CN(CC(=O)O)c1cc(-c2ccccc2)c2cc(CCc3nc4ccccc4o3)ccc2n1 [2-({6-[2-(1,3-benzoxazol-2-yl)ethyl]-4-phenylquinolin-2-yl}(methyl)amino)acetic acid] was tested. Which fold induction at 10 µM [1] did it give?
A: 1.23

Q: What about the inhibition at 1085 µM (stock) [2] of the same compound?
A: 27.4%

Q: For CN(CC(=O)O)c1cc(-c2ccccc2)c2cc(CCc3ccccc3Cl)ccc2n1 [2-({6-[2-(2-chlorophenyl)ethyl]-4-phenylquinolin-2-yl}(methyl)amino)acetic acid], which fold induction at 10 µM [1] is on record?
A: 1.26

Q: And the inhibition at 1085 µM (stock) [2]?
A: 30.1%

Q: How did the fold induction at 10 µM [1] turn out when COc1ccccc1CCc1ccc2nc(N(C)CC(=O)O)cc(-c3ccccc3)c2c1 [2-({6-[2-(2-methoxyphenyl)ethyl]-4-phenylquinolin-2-yl}(methyl)amino)acetic acid] was run?
A: 1.11

Q: What about the inhibition at 1085 µM (stock) [2] of the same compound?
A: 65.1%

Q: CN(CC(=O)O)c1cc(-c2ccccc2)c2cc(CCc3cccc(Cl)c3)ccc2n1 [2-({6-[2-(3-chlorophenyl)ethyl]-4-phenylquinolin-2-yl}(methyl)amino)acetic acid] was tested. Which fold induction at 10 µM [1] did it give?
A: 1.47

Q: What about the inhibition at 1085 µM (stock) [2] of the same compound?
A: 57.1%

Q: With COc1cccc(CCc2ccc3nc(N(C)CC(=O)O)cc(-c4ccccc4)c3c2)c1 [2-({6-[2-(3-methoxyphenyl)ethyl]-4-phenylquinolin-2-yl}(methyl)amino)acetic acid] as the compound, how does the fold induction at 10 µM [1] read?
A: 1.31

Q: What about the inhibition at 1085 µM (stock) [2] of the same compound?
A: 93.2%

Q: Which fold induction at 10 µM [1] does the source give for CN(CC(=O)O)c1cc(-c2ccccc2)c2cc(CCc3ccc(Cl)cc3)ccc2n1 [2-({6-[2-(4-chlorophenyl)ethyl]-4-phenylquinolin-2-yl}(methyl)amino)acetic acid] here?
A: 1.43

Q: What about the inhibition at 1085 µM (stock) [2] of the same compound?
A: 56.4%

Q: Which fold induction at 10 µM [1] does the source give for COc1ccc(CCc2ccc3nc(N(C)CC(=O)O)cc(-c4ccccc4)c3c2)cc1 [2-({6-[2-(4-methoxyphenyl)ethyl]-4-phenylquinolin-2-yl}(methyl)amino)acetic acid] here?
A: 1.26

Q: And the inhibition at 1085 µM (stock) [2]?
A: 15%

Q: Which fold induction at 10 µM [1] does the source give for CCCc1ccc2nc(OCC(=O)O)cc(-c3ccccc3)c2c1 [2-[(4-phenyl-6-propylquinolin-2-yl)oxy]acetic acid] here?
A: 0.99

Q: And the inhibition at 1085 µM (stock) [2]?
A: 33.8%

Q: Which results are given for CN(CC(=O)O)c1cc(-c2ccccc2)c2cc(Br)ccc2n1 [2-[(6-bromo-4-phenylquinolin-2-yl)(methyl)amino]acetic acid]?
A: fold induction at 10 µM [1]: 1.26; inhibition at 1085 µM (stock) [2]: 109%

Q: Which fold induction at 10 µM [1] does the source give for O=C(O)COc1cc(-c2ccccc2)c2cc(Br)ccc2n1 [2-[(6-bromo-4-phenylquinolin-2-yl)oxy]acetic acid] here?
A: 1.01

Q: And the inhibition at 1085 µM (stock) [2]?
A: 35%

Q: With CCCCc1ccc2nc(OCC(=O)O)cc(-c3ccccc3)c2c1 [2-[(6-butyl-4-phenylquinolin-2-yl)oxy]acetic acid] as the compound, how does the fold induction at 10 µM [1] read?
A: 1.12

Q: What about the inhibition at 1085 µM (stock) [2] of the same compound?
A: 11.3%

Q: With CN(CC(=O)O)c1cc(-c2ccccc2)c2cc(Cl)ccc2n1 [2-[(6-chloro-4-phenylquinolin-2-yl)(methyl)amino]acetic acid] as the compound, how does the fold induction at 10 µM [1] read?
A: 1.14

Q: What about the inhibition at 1085 µM (stock) [2] of the same compound?
A: 99.7%

Q: Which results are given for CC(C(=O)O)N(C)c1cc(-c2ccccc2)c2cc(Cl)ccc2n1 (stereo not shown) [2-[(6-chloro-4-phenylquinolin-2-yl)(methyl)amino]propanoic acid]?
A: fold induction at 10 µM [1]: 1.18; inhibition at 1085 µM (stock) [2]: 97.4%

Q: For O=C(O)COc1cc(-c2ccccc2)c2cc(Cl)ccc2n1 [2-[(6-chloro-4-phenylquinolin-2-yl)oxy]acetic acid], which fold induction at 10 µM [1] is on record?
A: 1.1

Q: What about the inhibition at 1085 µM (stock) [2] of the same compound?
A: 34.4%

Q: Which results are given for CCc1ccc2nc(N(C)CC(=O)O)cc(-c3ccccc3)c2c1 [2-[(6-ethyl-4-phenylquinolin-2-yl)(methyl)amino]acetic acid]?
A: fold induction at 10 µM [1]: 1.12; inhibition at 1085 µM (stock) [2]: 103%

Q: Which results are given for CCc1ccc2nc(OCC(=O)O)cc(-c3ccccc3)c2c1 [2-[(6-ethyl-4-phenylquinolin-2-yl)oxy]acetic acid]?
A: fold induction at 10 µM [1]: 0.97; inhibition at 1085 µM (stock) [2]: 31.9%

Q: Which results are given for CCCCCCC1CCc2nc(N(C)CC(=O)O)cc(-c3ccccc3)c2C1 (stereo not shown) [2-[(6-hexyl-4-phenyl-5,6,7,8-tetrahydroquinolin-2-yl)(methyl)amino]acetic acid]?
A: fold induction at 10 µM [1]: 1.34; inhibition at 1085 µM (stock) [2]: 64.5%

Q: Which results are given for CCCCCCc1ccc2nc(N(C)CC(=O)O)cc(-c3ccccc3)c2c1 [2-[(6-hexyl-4-phenylquinolin-2-yl)(methyl)amino]acetic acid]?
A: fold induction at 10 µM [1]: 1.41; inhibition at 1085 µM (stock) [2]: 88.2%

Q: With CCCCCCc1ccc2nc(N(C)CC(=O)O)ccc2c1 [2-[(6-hexylquinolin-2-yl)(methyl)amino]acetic acid] as the compound, how does the fold induction at 10 µM [1] read?
A: 1.15

Q: What about the inhibition at 1085 µM (stock) [2] of the same compound?
A: 53.3%

Reference: patent US20230183179A1, “NOVEL CELL METABOLISM MODULATING COMPOUNDS AND USES THEREOF” (CRESCENTA BIOSCIENCES, priority 2020, published 2023)
